Data: patent US7141660B2, “Genes encoding a nystatin polyketide synthase and their manipulation and utility” (Sinvent AS, priority 2000, dated 2006)

System: Candida albicans
Assay: bioassay for antifungal activity against Candida albicans
Type: cell-based
Details: for Activity: Table 5, products of S. noursei nysC mutants, graded against nystatin of wild type (normal)
Procedure: Preliminary analysis of the compounds produced by the S. noursei ERD44 and ERD48 was carried out. It was shown that a heptaenic compound produced by the ERD44 mutant has high antifungal activity against Candida albicans, an organism used in tests for antifungal activity. At this point it is not possible to accurately assay the activity of this compound (tentatively named S44), because it is not yet properly purified, and its exact concentration is difficult to estimate. […] This probably reflects the different states of modifications of the macrolactone ring by i.e. glycosylation at C19, hydroxylation at C10, or oxidation of the methyl group at C16. This could have been expected, since reduction of the macrolactone ring size most probably leads to the lower affinity of the modifying enzymes towards the new substrate.
Antifungal activity of the S48 mixture was tested, and found to constitute approx. 10% of nystatin activity. It seems probable that only one of the compounds in the S48 mixture produced by ERD48, which is fully decorated by the ring-modifying enzymes, is responsible for the antifungal activity detected. Thus, relative antifungal activity of this compound is impossible to assess prior to its purification Some of the […] antibiotics are known to have antibacterial, as well as antifungal activity (Ciftci, et al., J. Antibiot, v. 37: 876–884, 1984). It is thus possible that hexaenic compounds produced by the ERD48 mutant can be used for production of antibacterial agents The changes in the NysC protein leading to production of new polyene compounds in ERD44 and ERD48 mutants, along with the predicted structures of their macrolactone rings are presented in FIG. 5.
The recombinant S.noursei strain selected after this procedure was designated NPR1.1 The S. noursei NPR1.1 recombinant strain was shown by Southern blot analysis to contain the desired deletion in the DH8-coding sequence of nysC. […] The relative mobility of these compounds differed from nystatin, and no UV spectra characteristic for nystatin could be detected in the extracts. […] However, the NPR1 mutant can be potentially useful for further manipulations with the nystatin PKS.

**Q.** With `CC1/C=C/C=C/C=C/C=C/C=C/C=C/C=C/C(O)CC2OC(O)(CC(O)CCCC(O)CC(O)CC(O)CC(=O)OC(C)[C@H](C)C1O)CC(O)C2C` (stereo partly shown) [S44] as the compound, how does the Activity read?
**A.** high

**Q.** What about the “antifungal activity against Candida albicans” value (result in words, unpurified compound or culture extracts) of the same compound?
**A.** high

**Q.** And the “antifungal activity compared to nystatin” value (rough estimates based on UV absorbance, compound not properly purified, concentration difficult to estimate)?
**A.** 4–5 times

**Q.** Which Activity does the source give for `C[C@@H]1[C@H](O)[C@@H](C)/C=C/C=C/CC/C=C/C=C/C=C/C=C/C(O[C@H]2O[C@H](C)[C@@H](O)[C@H](N)[C@@H]2O)CC2O[C@](O)(CC(O)C(O)CCC(O)CC(O)CC(O)CC(=O)O[C@H]1C)CC(O)C2C(=O)O` (stereo partly shown) [nystatin] here?
**A.** normal
